In US20250179440A1, “METHOD FOR CULTURING CANCER ORGANOID AND METHOD FOR SCREENING TEST SUBSTANCE” (TOPPAN Holdings Inc., priority 2022, published 2025):

Test system: blood vessel network of the cell structure (HUVEC/NHDF)
Assay: Blood vessel network formation in the cell structure co-cultured with PDOs (anti-CD31 immunostaining)
Format: cell-based, human
Conditions: added factor of EGM2 added singly to DMEM and EBM2; FIGS. 9 and 10
Description: The pre-culture of the patient-derived PDOs and the preparation of the cell structure were performed by the same method as in Example 1. For the co-culture of the PDOs and the cell structure, a method for top surface culture of the cell structure using single-celled PDOs was adopted. In addition, regarding the sample for which the culture was continued, the co-culture of the PDOs and the cell structure was performed by the same method as in Example 1, except that the medium was replaced using each medium at a timing of once every three or four days. Fluorescence immunostaining, image capturing, and image analysis were performed by the same methods as in Example 1. Next, in order to identify the inhibitory factors among the added factors, media obtained by adding each of the added factors of EGM2 shown in Table 7 to D-MEM and EBM2, and media obtained by excluding each of the added factors shown in Table 7 from EGM2 were prepared, and vascular network evaluation was performed. The scale bars in FIGS. 9 and 10 indicate 500 μm. […] In FIG. 10, +means that the added factor is included, and −means that the added factor is excluded.

C[C@]12CCC(=O)C=C1CC[C@@H]1[C@@H]2[C@@H](O)C[C@@]2(C)[C@H]1CC[C@]2(O)C(=O)CO [Hydrocortisone]
formation of the blood vessel network: the formation of the blood vessel network was suppressed
